Where two headings read alike, the source gives them in different places.
What was measured:
Type in all cases: cell-based, human
[1] = test system: TNF-alpha production by PBMC; experiment: TNF-alpha assay, LPS-stimulated PBMC, sandwich ELISA
Experimental: (§1) All reagents were dissolved in 0.5 ml dimethylsulfoxide (hereinafter referred as DMSO) and further diluted in culture medium before use for the following in vitro experiments. The commercially available culture medium consisted of RPMI-1640+10% foetal calf serum (FCS). Peripheral blood mononuclear cells (herein referred as PBMC), in response to stimulation by lipopolysaccharide (LPS), a gram-negative bacterial endotoxin, produce various […], in particular human TNF-alpha and II-1 beta. The inhibition of the activation of PBMC can be measured by the level of suppression of the production of TNF-alpha or IL-1 beta by PBMC in response to stimulation by LPS. Such inhibition measurement was performed as follows: PBMC were isolated from heparinized peripheral blood (Buffy coat) by density gradient centrifugation. LPS is then added to the PMBC suspension in complete medium (10^6 cells/ml) at a final concentration of 1 μg/ml. The compound to be tested was added at different dilution levels, and the cells were incubated at 37° C. for 72 hours. The supernatants were collected, and TNF-alpha or II-1 beta concentrations were measured with respectively an anti-TNF antibody or an anti-IL-1 beta antibody in a sandwich ELISA. The percent inhibition was calculated as: % inhibition=(pg/ml in sample−pg/ml min.)/(pg/ml max.−pg/ml min.)−1 wherein: min.: pg/ml in culture medium without test compound, and • max.: pg/ml in culture medium+LPS without test compound.

[2] = test system: peripheral blood mononuclear cells (PBMC); experiment: Mixed lymphocyte reaction (MLR) test
Experimental: All reagents were dissolved in 0.5 ml dimethylsulfoxide (hereinafter referred as DMSO) and further diluted in culture medium before use for the following in vitro experiments. The commercially available culture medium consisted of RPMI-1640+10% foetal calf serum (FCS). Peripheral blood mononuclear cells (hereinafter referred as PBMC) were isolated from heparinized peripheral blood by density gradient centrifugation over Lymphoprep (Nycomed, Maorstua, Norway). Allogeneic PBMC or […]-Barr Virus-transformed human B cells [commercially available under the trade name RPMI1788 (ATCC name CCL156)] which strongly express B7-1 and B7-2 antigens were used as stimulator cells after irradiation with 30 Gy. MLR was performed in triplicate wells. After 5 days incubation at 37° C., 1 μCi [^3H]-thymidine was added to each cup. After a further 16 hours incubation, cells were harvested and counted in a β-counter. Inhibition of proliferation by a compound (drug) described in some of the previous examples was counted using the formula: [formula] wherein cpm is the thymidine count per minute. TNF-Alpha and IL-1 Beta Assays

[3] = test system: IL-1 beta production by PBMC; experiment: IL-1 beta assay, LPS-stimulated PBMC, sandwich ELISA
Experimental: as §1

[4] = Table 7, same conditions as example 26, read-out: TNFα IC50
[5] = Table 7, same conditions as example 26
[6] = Table 7, same conditions as example 26, read-out: IL1β IC50
[7] = Table 2, [3H]-thymidine incorporation after 5 days incubation
[8] = Table 2, LPS 1 μg/ml, 72 hours, read-out: IL-1 IC50
[9] = Table 2, LPS 1 μg/ml, 72 hours, read-out: TNF IC50

Molecule | IC50 [1, 4] | IC50 [2, 5] | IC50 [3, 6] | IC50 [2, 7] | IC50 [3, 8] | IC50 [1, 9]
Cn1c(=O)n(Cc2ccccc2)c(=O)c2nc(-c3ccccc3)c(Cl)nc21 [Example 59, 7-chloro-3-benzyl-1-methyl-6-phenyl-lumazine] | 5.3 µM | 5 µM | 0.5 µM |  |  | 
Cn1c(=O)n(CCN2CCCC2)c(=O)c2nc(-c3ccccc3)c(Cl)nc21 [Example 78, 7-chloro-1-methyl-6-phenyl-3-(2-pyrrolidinoethyl)-lumazine] | 7.4 µM | 4.4 µM | 0.8 µM |  |  | 
Cn1c(=O)[nH]c(=O)c2nc(-c3ccccc3)c(Cl)nc21 [Example 14, 1-methyl-6-phenyl-7-chloro-lumazine] |  |  |  | 4.1 µM | 0.35 µM | 
CCOC(=O)Cn1c(=O)c2nc(-c3ccccc3)c(Cl)nc2n(C)c1=O [Example 71, 7-chloro-3-(ethyl acetate)-1-methyl-6-phenyl-lumazine] | 3.4 µM | 2.8 µM | 0.6 µM |  |  | 
CCOC(=O)CCCn1c(=O)c2nc(-c3ccccc3)c(Cl)nc2n(C)c1=O [Example 55, 7-chloro-3-(ethyl butyrate)-1-methyl-6-phenyl-lumazine] | 0.5 µM | 4.9 µM | 0.6 µM |  |  | 
CCOC(=O)CCCn1c(=O)n(C)c(=O)c2nc(-c3ccccc3)c(Cl)nc21 [Example 56, 7-chloro-1-(ethyl butyrate)-3-methyl-6-phenyl-lumazine] | 0.5 µM | 4.9 µM | 0.6 µM |  |  | 
COc1ccc(-c2nc3c(=O)[nH]c(=O)n(C)c3nc2Cl)cc1 [Example 40, 7-chloro-6-(4-methoxyphenyl)-1-methyl-lumazine] | 0.8 µM | 3.3 µM | 0.6 µM |  |  | 
COc1ccc(-c2nc3c(=O)[nH]c(=O)n(C)c3nc2Cl)cc1 [Example 15, 1-methyl-6-(4′-methoxyphenyl)-7-chloro-lumazine] |  |  |  | 3 µM | 0.4 µM | 0.8 µM
Cn1c(=O)[nH]c(=O)c2nc(-c3ccc(C#N)cc3)c(Cl)nc21 [Example 48, 7-chloro6-(4-cyanophenyl)-1-methyl-lumazine] | 2.5 µM | 4.3 µM | 0.4 µM |  |  | 
CCOC(=O)CCCn1c(=O)c2nc(-c3ccc(OC)cc3)c(Br)nc2n(C)c1=O [Example 80, 7-bromo-3-(ethylbutyrate)-1-methyl-6-(4-methoxyphenyl)-lumazine] | 2.1 µM | 5.6 µM | 6.4 µM |  |  | 
Cn1c(=O)n(CCN2CCOCC2)c(=O)c2nc(-c3ccccc3)c(Cl)nc21 [Example 74, 7-chloro-1-methyl-3-(2-morpholinoethyl)-6-phenyl-lumazine] | 2.6 µM | 4.2 µM | 0.7 µM |  |  | 
CCCNC(=O)CCCn1c(=O)c2nc(-c3ccccc3)c(Cl)nc2n(C)c1=O [Example 92, 7-chloro-1-methyl-6-phenyl-3-(N-propyl 4-butyramido)-lumazine] | 5.4 µM | 3.4 µM | 1.1 µM |  |  | 
CCOC(=O)CCCn1c(=O)c2nc(-c3ccccc3)c(Br)nc2n(C)c1=O [Example 70, 7-bromo-3-(ethyl butyrate)-1-methyl-6-phenyl-lumazine] | 5.5 µM | 5 µM | 3.5 µM |  |  | 
Cn1c(=O)n(CCN2CCOCC2)c(=O)c2nc(-c3ccccc3)c(Br)nc21 [Example 81, 7-bromo-1-methyl-3-(2-morpholinoethyl)-6-phenyl-lumazine] | 1.7 µM | 4.7 µM | 5.4 µM |  |  | 
Cc1ccc(-c2nc3c(=O)[nH]c(=O)n(C)c3nc2Cl)cc1 [Example 52, 7-chloro-1-methyl-6-(4-methylphenyl)-lumazine] | 1.1 µM | 3.5 µM |  |  |  | 
Cn1c(=O)c2nc(-c3ccc(O)cc3)c(Br)nc2n(C)c1=O [Example 84, 7-bromo-1,3-dimethyl-6-(4-hydroxyphenyl)-lumazine] | 0.9 µM | 4.1 µM | 3.9 µM |  |  | 

Molecule | IC50 [1, 4] | IC50 [2, 5] | IC50 [3, 6] | IC50 [2, 7] | IC50 [3, 8] | IC50 [1, 9]
CC(=O)Nn1c(=O)c2nc(-c3ccccc3)c(Cl)nc2n(C)c1=O [Example 69, 3-acetamido-7-chloro-1-methyl-6-phenyl-lumazine] | 5.8 µM | 4.5 µM | 3.4 µM |  |  | 
Cn1c(=O)n(CCN2CCCCC2)c(=O)c2nc(-c3ccccc3)c(Cl)nc21 [Example 77, 7-chloro-1-methyl-6-phenyl-3-(2-piperidinoethyl)-lumazine] | 3.7 µM | 3.4 µM | 0.7 µM |  |  | 
CCOC(=O)CCCn1c(=O)c2nc(-c3ccc(OC)cc3)c(F)nc2n(C)c1=O [Example 83, 3-(ethyl butyrate)-7-fluoro-1-methyl-6-(4-methoxyphenyl)-lumazine] | 4.9 µM | 4.5 µM | 6.4 µM |  |  | 
Cc1ccc(-c2nc3c(=O)[nH]c(=O)n(C)c3nc2Cl)cc1 [Example 16, 1-methyl-6-(4′-methylphenyl)-7-chloro-lumazine] |  |  |  | 3.6 µM |  | 1.1 µM
COc1ccc(-c2nc3c(=O)[nH]c(=O)n(C)c3nc2Br)cc1OC [Example 50, 7-bromo-6-(3,4-dimethoxyphenyl)-1-methyl-lumazine] | 1 µM | 4 µM | 0.6 µM |  |  | 
7-chloro-3-(chlorophenyl)-1-methyl-lumazine [Example 46] | 4.7 µM | 5.7 µM | 0.9 µM |  |  | 
Cn1c(=O)n(CCCC(N)=O)c(=O)c2nc(-c3ccccc3)c(Cl)nc21 [Example 90, 3-(4-butyramido)-7-chloro-1-methyl6-phenyl-lumazine] | 4.9 µM | 3.9 µM | 1.6 µM |  |  | 
CCOC(=O)CCCCn1c(=O)c2nc(-c3ccccc3)c(Cl)nc2n(C)c1=O [Example 72, 7-chloro-3-(ethyl pentanoate)-1-methyl-6-phenyl-lumazine] | 3.4 µM | 3.5 µM | 0.6 µM |  |  | 
O=c1[nH]c(=O)n(Cc2ccccc2)c2nc(Cl)c(-c3ccccc3)nc12 [Example 53, 7-chloro-1-benzyl-6-phenyl-lumazine] | 4.5 µM | 4.4 µM | 1.2 µM |  |  | 
COc1ccc(-c2nc3c(=O)n(CCCC(=O)OC(C)C)c(=O)n(C)c3nc2Br)cc1OC [Example 88, 7-bromo-6-(3,4-dimethoxyphenyl)-3-(isopropyl butyrate)-1-methyl-lumazine] | 0.7 µM | 4.7 µM | 7.5 µM |  |  | 
Cn1c(=O)[nH]c(=O)c2nc(-c3ccc(Cl)cc3)c(Cl)nc21 [Example 20, 1-methyl-6-(4′-chlorophenyl)-7-chloro-lumazine] |  |  |  |  | 0.4 µM | 3.8 µM
COc1ccc(-c2nc3c(=O)[nH]c(=O)n(C)c3nc2Cl)cc1OC [Example 19, 1-methyl-6-(3′,4′-dimethoxyphenyl)-7-chloro-lumazine] |  |  |  | 5.1 µM |  | 1.1 µM
Cn1c(=O)[nH]c(=O)c2nc(-c3ccc(Cl)cc3)c(Cl)nc21 [Example 54, 7-chloro-6-(4-chlorophenyl)-1-methyl-lumazine] | 3.8 µM |  | 0.5 µM |  |  | 
O=c1[nH]c(=O)n(Cc2ccccc2)c2nc(Cl)c(-c3ccccc3)nc12 [Example 18, 1-benzyl-6-phenyl-7-chloro-lumazine] |  |  |  | 4.4 µM |  | 4.5 µM
Cn1c(=O)[nH]c2nc(Cl)c(-c3ccccc3)nc2c1=O [Example 6, 3-methyl-6-phenyl-7-chloro-lumazine] |  |  |  |  | 0.4 µM | 3 µM

Reference: patent US20070043000A1, “Immunosuppresive effects of pteridine derivatives” (priority 2003, published 2007)
